# Laboratory results as given in paper PMC10619133, “The catechol moiety of obafluorin is essential for antibacterial activity” (RSC Chemical Biology, 2023).
# “Also recorded” adds a separate entry of the source. Like-named read-outs stand apart in the source and are kept apart here.
# Key:
# MRSA = test: Spot-on-lawn MIC bioassay; format: cell-based, Methicillin-resistant Staphylococcus aureus; details: for MIC: Staphylococcus aureus, MRSA, read-out: MIC
# Experimental: (§1) Indicator strains were grown for 16–18 h in LB (5 mL) by inoculation from a single colony. An aliquot of the resulting culture (500 μL) was then used to inoculate LB (50 mL in 250 mL Erlenmeyer flasks), followed by orbital shaking at 250 rpm until they reached an OD600 of 0.3–0.4. These cultures were then diluted 1 : 10 with molten soft nutrient agar (SNA), before pouring into appropriately sized Petri dishes to set. Serial dilutions of the test compounds (from 256 μg mL^−1 to 1 μg mL^−1 plus an additional sample at 1000 μg mL^−1) were prepared in acetonitrile (ACN), and 4 μL of each sample was applied directly onto the SNA surface. Kanamycin (50 μg mL^−1), apramycin (50 μg mL^−1) or aureobasidin A (0.2 μg mL^−1) were used as positive controls, as appropriate, and ACN or water (4 μL) were used as negative controls. […] Experiments were carried out in at least triplicate for each strain.
# (§2) The method was the same as for the antibacterial MIC assays described above, with the following modifications: for excess iron, Fe(NO3)3·9H2O stock (400 mM) was added to give a final concentration of 1.5 or 2.0 mM; for iron depletion, bipy stock (1 M) was added to give a final concentration of 150 μM. For MRSA, 1 was further diluted to 0.5 0.25 and 0.125 μg mL^−1 due to a decrease in MIC under excess iron conditions. The general effect of excess iron on the activity of alternative antibiotics was determined by performing a similar serial dilution of carbenicillin, kanamycin, streptomycin, nitrofurantoin and chloramphenicol in the presence of Fe^3+.
# E. coli 25922 = test: Spot-on-lawn MIC bioassay; format: cell-based, E. coli ATCC 25922
# Experimental: as §1, §2
# E. coli NR698 = test: Spot-on-lawn MIC bioassay; format: cell-based; details: Escherichia coli, NR698
# Experimental: as §1
# S. cerevisiae = test: Spot-on-lawn MIC bioassay; format: cell-based, S. cerevisiae NCYC 2939; details: Saccharomyces cerevisiae
# Experimental: as §1
# E. coli BW25113 = test: Spot-on-lawn MIC bioassay; format: cell-based; details: for MIC: Escherichia coli
# Experimental: as §1, §2
# P. aeruginosa PA01 = test: Spot-on-lawn MIC bioassay; format: cell-based; details: for MIC: Pseudomonas aeruginosa
# Experimental: as §1, §2
# E. coli BW25113 Δ3 = test: Spot-on-lawn MIC bioassay, TBDT knock-out mutant; format: cell-based; details: for MIC: Escherichia coli
# Experimental: as §1, §2
# E. coli BW25113 Δ6 = test: Spot-on-lawn MIC bioassay, TBDT knock-out mutant; format: cell-based; details: for MIC: Escherichia coli
# Experimental: as §1, §2
# ObaO = test: Aminoacylation assay; format: biochemical, P. fluorescens
# Experimental: (§3) To measure the effects of 1–4 on ThrRS canonical tRNA charging activity, an assay modified from that reported by Ruan et al.[53] was used, where active enzyme was incubated with its necessary substrates and its activity measured using ^14C labeled Thr and a liquid scintillation counter. Purified ThrRS protein (10 nM) was pre-incubated with varying concentrations of compounds 1–4 or ACN for 10 min. After pre-incubation, ThrRS samples were added to a master reaction mixture with the final component concentrations of HEPES (100 mM, pH 7.0), ATP (4 mM), MgCl2 (10 mM), L-[U-^14C]threonine (50 μM, Moravek Inc.), and tRNA^Thr (5 μM). This mixture was incubated at room temperature for 10 min, with samples taken at 1, 2.5, 5, and 10 min. At each time point, a 7 μL aliquot was spotted onto a 5% trichloroacetic acid (TCA) presoaked 3 MM Whatman paper (Cytiva) squares (repeated in triplicate). After allowing the spots to dry, the Whatman paper was washed three times with 5% TCA, and once with 95% EtOH. The Whatman paper was dried and the counts on each square of paper analyzed using a Tri-Carb 2910 TR liquid scintillation counter using Hydrofluor Liquid Scintillation Fluid (National Diagnostics). To calculate IC50 values, fractional initial velocities (velocity of inhibited reaction/velocity in the absence of inhibitor) were plotted against the log of 1 concentration and then fitted to eqn (1), using GraphPad Prism.1 [drawing 1]
# PfThrRS = PfThrRS (Pseudomonas fluorescens, UniProt C3JZN7); test: Aminoacylation assay; format: biochemical, P. fluorescens; details: enzyme 10 nM; read-out: concentration of full inhibition
# Chain of PfThrRS (C3JZN7 whole entry): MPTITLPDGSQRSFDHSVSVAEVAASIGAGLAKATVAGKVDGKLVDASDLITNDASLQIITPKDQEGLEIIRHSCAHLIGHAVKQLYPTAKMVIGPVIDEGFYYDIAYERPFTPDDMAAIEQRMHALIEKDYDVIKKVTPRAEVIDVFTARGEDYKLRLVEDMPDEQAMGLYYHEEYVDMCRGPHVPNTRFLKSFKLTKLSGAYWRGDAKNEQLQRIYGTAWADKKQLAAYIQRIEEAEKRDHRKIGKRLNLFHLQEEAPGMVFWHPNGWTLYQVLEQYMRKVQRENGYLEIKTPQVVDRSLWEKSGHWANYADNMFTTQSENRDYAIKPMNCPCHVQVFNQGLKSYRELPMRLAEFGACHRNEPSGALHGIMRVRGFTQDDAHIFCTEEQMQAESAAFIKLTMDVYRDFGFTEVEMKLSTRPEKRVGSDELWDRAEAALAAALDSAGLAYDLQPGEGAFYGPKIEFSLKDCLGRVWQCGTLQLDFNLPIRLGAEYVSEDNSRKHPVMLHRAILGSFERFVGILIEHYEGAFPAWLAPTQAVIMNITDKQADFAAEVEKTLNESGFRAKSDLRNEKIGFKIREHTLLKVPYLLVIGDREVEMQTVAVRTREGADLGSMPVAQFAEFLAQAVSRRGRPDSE
# Experimental: as §3
# [1] = with vs without Fe^3+ in growth agar
# [2] = BW25113, iron depleted, +bipy (150 μM)
# [3] = BW25113, iron replete, +Fe^3+ (2 mM)
compound,measurement,setting,value
"O=C(N[C@@H]1C(=O)O[C@@H]1Cc1ccc([N+](=O)[O-])cc1)c1cccc(O)c1O [compound 1, Obafluorin]",MIC,MRSA; +Fe^3+ (2 mM) in the media,0.25 µg/mL
same,MIC,"MRSA; spot-on-lawn, standard conditions",2 µg/mL
same,decrease in MIC with added Fe^3+,MRSA; [1],8 fold
same,MIC,"E. coli 25922; Escherichia coli, 25922, iron depleted, +bipy (150 μM)",256 µg/mL
same,MIC,"E. coli 25922; Escherichia coli, 25922, +Fe^3+ (2 mM) in the media, read-out: MIC",≤ 1 µg/mL
same,MIC,"E. coli 25922; Escherichia coli, 25922, spot-on-lawn, standard conditions",256 µg/mL
same,decrease in MIC with added Fe^3+,E. coli 25922; [1],≥ 256 fold
same,MIC,E. coli NR698,4 µg/mL
same,MIC,"S. cerevisiae; Figure S12 legend, read-out: Minimum inhibitory concentration",1000 µg/mL
same,MIC,"S. cerevisiae; standard conditions, read-out: MIC",1000 µg/mL
same,MIC,E. coli BW25113; [2],256 µg/mL
same,MIC,"E. coli BW25113; BW25113, iron replete, +Fe^3+ (2 mM), read-out: MIC",≤ 1 µg/mL
same,MIC,"E. coli BW25113; BW25113, standard conditions",256 µg/mL
same,decrease in MIC upon addition of Fe^3+,E. coli BW25113; with vs without Fe^3+,≥ 256 fold
same,MIC,"P. aeruginosa PA01; PA01, +Fe^3+ (1.5 mM) in the media",≤ 1 µg/mL
same,MIC,"P. aeruginosa PA01; PA01, spot-on-lawn, standard conditions",128 µg/mL
same,decrease in MIC with added Fe^3+,P. aeruginosa PA01; [1],≥ 128 fold
same,MIC,E. coli BW25113 Δ3; [2],256 µg/mL
same,MIC,E. coli BW25113 Δ3; [3],≤ 1 µg/mL
same,MIC,"E. coli BW25113 Δ3; BW25113, standard conditions",256 µg/mL
same,decrease in MIC upon addition of Fe^3+,E. coli BW25113 Δ3; with vs without Fe^3+,≥ 256 fold
same,MIC,E. coli BW25113 Δ6; [3],≤ 1 µg/mL
same,MIC,"E. coli BW25113 Δ6; BW25113, standard conditions",256 µg/mL
same,decrease in MIC upon addition of Fe^3+,E. coli BW25113 Δ6; with vs without Fe^3+,≥ 256 fold
same,inhibition of aminoacylation (in words),ObaO; 0–5 μM (up to 5000 nM),no observable inhibition; also recorded: no significant inhibition
same,IC50,"ObaO; enzyme 10 nM, 10 min preincubation, 0–5 μM compound",not inhibited; also recorded: No inhibition
same,IC100,PfThrRS,0.01 µM
